In assay [1] the target is T1, wild type human RORγt LBD (Homo sapiens, UniProt P51449).
T1 construct: expressed in transfected cells; host or cells: HEK293T
T1 sequence (P51449 258-518): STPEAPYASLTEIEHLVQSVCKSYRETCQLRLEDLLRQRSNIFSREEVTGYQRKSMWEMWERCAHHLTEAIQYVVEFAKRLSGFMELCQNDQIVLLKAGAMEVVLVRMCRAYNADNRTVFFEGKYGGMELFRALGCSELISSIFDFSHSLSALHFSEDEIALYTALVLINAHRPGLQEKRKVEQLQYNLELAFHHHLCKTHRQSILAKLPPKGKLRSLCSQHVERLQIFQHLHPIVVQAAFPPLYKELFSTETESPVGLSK
The assay is described as follows: RORγt (LBD) Reporter Assay (GAL4-luciferase, HEK293T cells). It counts as cell-based. The following applies: for IC50: HEK293T cells, value after the comma with ∼, > or < could not be included in the average; for inhibition at 6 µM: HEK-293T, read-out: RORγt (LBD) Reporter Assay, % inhibition @ 6 µM, 6 µM compound concentration.

The target in assay [2] is T2, wild type human RORγt ligand binding domain (RORyt LBD) (Homo sapiens, UniProt P51449).
T2 construct: His-tag (N); TurboTEV protease cleavage site (ENLYFQG) (N); made in house; host or cells: E. coli (pHIS1, modified pET vector)
T2 sequence (P51449 258-518): T1 sequence (P51449 258-518)
Kind of assay: RORγt ThermoFluor assay (thermal shift, binding affinity KD). In general terms: DSF heats the sample and reads unfolding from a dye or from intrinsic fluorescence.

Where a name gives a salt, the structure may show the parent alone.

In general, IC50 refers to the concentration that gives 50% inhibition. A high value points to weaker potency. Broadly, the Kd is the free concentration of one partner at which half of the binding sites on the other are occupied at equilibrium, for simple one-to-one binding.

“3-((4-Chloro-6-((4-chlorophenyl)(hydroxy)(1-methyl-1H-imidazol-5-yl)methyl)-2-methoxyquinolin-3-yl)methyl)benzonitrile•TFA [Example 70]”: in assay [1] (6 µM compound concentration), the “RORγt (LBD) Reporter Assay, % inhibition @ 6 µM” value is 94%. For the same compound, in assay [1], the midpoint of inhibition, the IC50, lay at 430 nM. Besides, the Kd in assay [2] stood at 120 nM.

For `COc1nc2ccc(C(O)(c3ccc(Cl)cc3)c3cncn3C)cc2c(C#N)c1Cc1ccc(C(F)(F)F)cc1` (racemic) [Example 55a, 6-((4-Chlorophenyl)(hydroxy)(1-methyl-1H-imidazol-5-yl)methyl)-2-methoxy-3-(4-(trifluoromethyl)benzyl)quinoline-4-carbonitrile], in assay [1], the IC50 stood at 32 nM and the inhibition at 6 µM turned out to be 104%. Further, the Kd in assay [2] came out at 11 nM.

In the case of `COc1nc2ccc(C(O)(c3ccc(C)nc3C)c3cnc(C)n3C)cc2c(Cl)c1Cc1ccc(C(F)(F)F)cc1` (racemic) [Example 57a, (4-Chloro-2-methoxy-3-(4-(trifluoromethyl)benzyl)quinolin-6-yl)(1,2-dimethyl-1H-imidazol-5-yl)(2,6-dimethylpyridin-3-yl)methanol], in assay [1], the IC50 was 22 nM and the inhibition at 6 µM was found to be 100%. Also, in assay [2], the Kd is 0.03 nM.

Regarding `COc1nc2ccc(C(O)(c3cnnn3C)c3cnc(C)n3C)cc2c(Cl)c1Cc1ccc(F)cc1` (racemic) [Example 65a], in assay [1], the IC50 amounted to 9.9 nM and the inhibition at 6 µM was determined as 74%. Moreover, in assay [2], the Kd is 0.19 nM.

As to `COc1nc2ccc(C(O)(c3cnnn3C)c3cnc(C)n3C)cc2c(C#N)c1Cc1ccc(F)cc1` (racemic) [Example 66a, 6-((1,2-Dimethyl-1H-imidazol-5-yl)(hydroxy)(1-methyl-1H-1,2,3-triazol-5-yl)methyl)-3-(4-fluorobenzyl)-2-methoxyquinoline4-carbonitrile], in assay [1], the IC50 stood at 8.2 nM and the inhibition at 6 µM was found to be 90%. In assay [2], the equilibrium dissociation constant (Kd) came to 0.59 nM.

For `COc1nc2ccc(C(N)(c3ccc(C(F)(F)F)nc3)c3cncn3C)cc2c(Cl)c1Cc1cc2ccccc2s1` (racemic) [Example 71a, (3-(Benzo[b]thiophen-2-ylmethyl)4-chloro-2-methoxyquinolin-6-yl)(1-methyl-1H-imidazol-5-yl)(6-(trifluoromethyl)pyridin-3-yl)methanamine], in assay [1], half-maximal inhibition (IC50) was put at 210 nM and the inhibition at 6 µM turned out to be 98%. Besides, the Kd in assay [2] was found to be 61 nM.

For `CC(=O)N1CCC(C(O)(c2ccccc2)c2ccc3nc(Cl)c(Cc4cncnc4)c(OC(F)F)c3c2)CC1` (racemic) [Example 73a, 1-(4-((2-Chloro-4-(difluoromethoxy)-3-(pyrimidin-5-ylmethyl)quinolin-6-yl)(hydroxy)(phenyl)methyl)piperidin-1-yl)ethanone], in assay [1], the IC50 was > 6000 nM and the inhibition at 6 µM is 45%. Moreover, the Kd in assay [2] amounted to 590 nM.

For `COc1nc2ccc(C(O)(c3cnnn3C)C3CCN(C(C)=O)CC3)cc2c(Cl)c1Cc1ccc(C(F)(F)F)cc1` (racemic) [Example 74a, 1-(4-((4-Chloro-2-methoxy-3-(4-(trifluoromethyl)benzyl)quinolin-6-yl)(hydroxy)(1-methyl-1H-1,2,3-triazol-5-yl)methyl)piperidin-1-yl)ethanone], in assay [1], the IC50 is ~10 nM and the inhibition at 6 µM is 98%. In addition, the dissociation constant Kd in assay [2] worked out at 3.1 nM.

For the compound `COc1nc2ccc(C(O)(c3cnc(C)n3C)c3cnc(C)n3C)cc2c(C#N)c1Cc1ccccc1C(F)(F)F` [Example 10, 6-(bis(1,2-Dimethyl-1H-imidazol-5-yl)(hydroxy)methyl)-2-methoxy-3-(2-(trifluoromethyl)benzyl)quinoline-4-carbonitrile•TFA], the Kd in assay [2] is 0.17 nM.

For the compound `COc1nc2ccc(C(O)(c3cnc(C)n3C)c3cnc(C)n3C)cc2c(C#N)c1Cc1ccc(C(F)(F)F)cc1` [Example 11, 6-(bis(1,2-Dimethyl-1H-imidazol-5-yl)(hydroxy)methyl)-2-methoxy-3-(4-(trifluoromethyl)benzyl)quinoline-4-carbonitrile], the Kd in assay [2] stood at 0.013 nM.

On to `Cc1nc2ccc(C(O)(c3cnnn3C)c3cnc(C)n3C)cc2c(Cl)c1Cc1ccc(C(F)(F)F)cc1` (centres unmarked) [Example 29a, (4-Chloro-2-methyl-3-(4-(trifluoromethyl)benzyl)quinolin-6-yl)(1,2-dimethyl-1H-imidazol-5-yl)(1-methyl-1H-1,2,3-triazol-5-yl)methanol], for which the Kd in assay [2] turned out to be 0.06 nM.

Consider `Cc1nc2ccc(C(O)(c3ccnc(C(F)(F)F)c3)c3cncn3C)cc2c(Cl)c1Cc1ccc(C(F)(F)F)cc1` (centres unmarked) [Example 30a, (4-Chloro-2-methyl-3-(4-(trifluoromethyl)benzyl)quinofin-6-yl)(1-methyl-1H-imidazol-5-yl)(2-(trifluoromethyl)pyridin4-yl)methanol], for which the equilibrium dissociation constant (Kd) in assay [2] was 0.28 nM.

In the case of `Cc1nc2ccc(C(O)(c3cnnn3C)C3CN(C(=O)OC(C)(C)C)C3)cc2c(Cl)c1Cc1ccc(C(F)(F)F)cc1` (centres unmarked) [Example 31, tert-Butyl 3-((4-chloro-2-methyl-3-(4-(trifluoromethyl)benzyl)quinolin-6-yl)(hydroxy)(1-methyl-1H-1,2,3-triazol-5-yl)methyl)azetidine-1-carboxylate], in assay [2], the Kd came out at 0.79 nM.

On to `CC(=O)N1CC(C(O)(c2ccc3nc(C)c(Cc4ccc(C(F)(F)F)cc4)c(Cl)c3c2)c2cnnn2C)C1` (centres unmarked) [Example 32a, 1-(3-((4-Chloro-2-methyl-3-(4-(trifluoromethyl)benzyl)quinolin-6-yl)(hydroxy)(1-methyl-1H-1,2,3-triazol-5-yl)methyl)azetidin-1-yl)ethanone], for which the dissociation constant (Kd) in assay [2] is 1.1 nM.

On to `CCc1nc2ccc(C(O)(c3cnnn3C)C3CCOCC3)cc2c(Cl)c1Cc1ccc(C(F)(F)F)cc1` (centres unmarked) [Example 33a, (4-Chloro-2-ethyl-3-(4-(trifluoromethyl)benzyl)quinolin-6-yl)(1-methyl-1H-1,2,3-triazol-5-yl)(tetrahydro-2H-pyran-4-yl)methanol], for which the Kd in assay [2] came out at 0.05 nM.

On to `CCc1nc2ccc(C(O)(c3cnc(C)n3C)C3CCOCC3)cc2c(Cl)c1Cc1ccc(C(F)(F)F)cc1` (centres unmarked) [Example 34a, (4-Chloro-2-ethyl-3-(4-(trifluoromethyl)benzyl)quinolin-6-yl)(1,2-dimethyl-1H-imidazol-5-yl)(tetrahydro-2H-pyran-4-yl)methanol], for which the Kd in assay [2] was 0.03 nM.

Turning to `CCc1nc2ccc(C(O)(c3ccccc3)C3CCN(C(C)=O)CC3)cc2c(Cl)c1Cc1ccc(-n2cccn2)cc1` (centres unmarked) [Example 35, 1-(4-((3-(4-(1H-Pyrazol-1-yl)benzyl)4-chloro-2-ethylquinolin-6-yl)(hydroxy)(phenyl)methyl)piperidin-1-yl)ethanone], the dissociation constant (Kd) in assay [2] came out at 3 nM.

`COc1nc2ccc(C(O)(c3ccc(C)nc3C)c3cnc(C)n3C)cc2c(Cl)c1Cc1ccc(C(F)(F)F)nc1` (centres unmarked) [Example 42a, (4-Chloro-2-methoxy-3-((6-(trifluoromethyl)pyridin-3-yl)methyl)quinolin-6-yl)(1,2-dimethyl-1H-imidazol-5-yl)(2,6-dimethylpyridin-3-yl)methanol]: the Kd in assay [2] amounted to 0.38 nM.

In the case of `COc1nc2ccc(C(O)(c3cnc(C)n3C)c3cnc(C)n3C)cc2c(Cl)c1Cc1ccc(C(F)(F)F)nc1` [Example 45, (4-Chloro-2-methoxy-3-((6-(trifluoromethyl)pyridin-3-yl)methyl)quinolin-6-yl)bis(1,2-dimethyl-1H-imidazol-5-yl)methanol], the Kd in assay [2] amounted to 0.21 nM.

As for `COc1nc2ccc(C(O)(c3cnc(C)n3C)c3cnc(C)n3C)cc2c(Cl)c1Cc1ccc(F)cc1` [Example 67, (4-Chloro-3-(4-fluorobenzyl)-2-methoxyquinolin-6-yl)bis(1,2-dimethyl-1H-imidazol-5-yl)methanol], the Kd in assay [2] was found to be 0.1 nM.

As for `COc1nc2ccc(C(O)(c3cnc(C)n3C)c3cnc(C)n3C)cc2c(Cl)c1Cc1ccc(OC(F)(F)F)cc1` [Example 76, (4-chloro-2-methoxy-3-(4-(trifluoromethoxy)benzyl)quinolin-6-yl)bis(1,2-dimethyl-1H-imidazol-5-yl)methanol], the Kd in assay [2] amounted to 0.03 nM.

In the case of `COc1nc2ccc(C(O)(c3cnnn3C)C3CN(C(N)=O)C3)cc2c(Cl)c1Cc1ccc(C(F)(F)F)cc1` (centres unmarked) [Example 91, 3-((4-Chloro-2-methoxy-3-(4-(trifluoromethyl)benzyl)quinolin-6-yl)(hydroxy)(1-methyl-1H-1,2,3-triazol-5-yl)methyl)azetidine-1-carboxamide], the equilibrium dissociation constant (Kd) in assay [2] turned out to be 0.2 nM.

In the case of `COc1nc2ccc(C(O)(c3c(C)noc3C)c3cnnn3C)cc2c(Cl)c1Cc1ccc(C(F)(F)F)cc1` (centres unmarked) [Example 93, (4-Chloro-2-methoxy-3-(4-(trifluoromethyl)benzyl)quinolin-6-yl)(3,5-dimethylisoxazol-4-yl)(1-methyl-1H-1,2,3-triazol-5-yl)methanol], the Kd in assay [2] was 0.6 nM.

In the case of `COc1nc2ccc(C(O)(c3c(C)noc3C)c3cnnn3C)cc2c(C#N)c1Cc1ccc(C(F)(F)F)cc1` (centres unmarked) [Example 94, 6-((3,5-Dimethylisoxazol-4-yl)(hydroxy)(1-methyl-1H-1,2,3-triazol-5-yl)methyl)-2-methoxy-3-(4-(trifluoromethyl)benzyl)quinoline-4-carbonitrile], in assay [2], the Kd is 0.48 nM.

In the case of `COCCN(C)c1nc2ccc(C(O)(c3ccc(C(F)(F)F)nc3)c3cncn3C)cc2c(Cl)c1Cc1ccc(-n2cccn2)cc1` (centres unmarked) [Example 128, {4-Chloro-2-[(2-methoxyethyl)(methyl)amino]-3-[4-(1H-pyrazol-1-yl)benzyl]quinolin-6-yl}(1-methyl-1H-imidazol-5-yl)[6-(trifluoromethyl)pyridin-3-yl]methanol], the dissociation constant (Kd) in assay [2] was found to be 97 nM.
